In US11278682B2, “Device and method for aerosolized delivery of substance to a natural orifice of the body” (SIPNOSE LTD., priority 2014, dated 2022):
Like-named read-outs stand apart in the source and are kept apart here.

Tests used:
in vivo = conditions: male, Sprague-Dawley, rat, 6 mg; for half-life: Half-life (estimated)
Experimental: (§3) A total of 13 male Sprague-Dawley rats were utilized. The animals were divided into four treated groups of three rats and one group with one naïve control rat.
(§4) The following tests were performed: • After sacrifice, gross pathology was performed, examining the nasal cavity (both sides, including the olfactory epithelium), the nasopharynx, paranasal sinus, trachea, lungs, brain (in several areas including the olfactory bulb), heart and larynx. • A histopathological evaluation of all groups of animals was made. • Blood was collected and plasma prepared 10, 30 and 90 min after the first and second administration and at termination.
(§5) IN application was carried out using solution at a dose volume of 300 μl per naris or as a powder (in two formulations). In all cases the total dose per rat was 6 mg of Topiramate. Prior to application of the test material, lidocaine was applied locally to the outer area of the nostril in order to decrease the level of distress.
(§6) Blood samples were collected into Li-Heparin tubes on ice, at 10, 30 and 90 min post first and second dosing. A blood volume of approximately 300 μl was obtained at each time point.
(§7) Topiramate was administered to the relevant study groups twice, with a five hour interval between administrations.

[1] = Repeated Topiramate dosing: plasma and brain concentrations; format: in vivo; conditions: rat, 0.78 mg, rats
Experimental: (§1) The study was performed according to the parameters of Table 31, for group allocation, and Table 32, for the study time-line. […] This provided a total of 1.56 mg per day per animal. For the liquid nasal samples, the administration was performed IN via SipNose's dedicated device at doses of 78 μL, from 10 mg/ml stock, or orally, after dilution to a dose volume of 200 μL. Food consumption was monitored two days before study initiation and daily during the study. Three (3) animals per group were sacrificed 45 minutes after the first dose of the first day, and six animals per group were sacrificed after 6 consecutive days of dosing, via CO2 asphyxiation.
(§2) Perfusion was performed under anesthesia with Isoflurane, using saline, for further PK examination of compounds in the brain.
Animals were sacrificed 45 minutes after the first administration of Day 1 and the last administration of Day 6, following blood sampling of 400 μL, if required, as described below. Three (3) rats, sacrificed after the first dosing day, were perfused with saline for PK analysis of blood and brain. Animals sacrificed on the last day of the study ([…]) were divided into 2 groups: one animal in each cage was bled and perfused with saline, after which the brain was collected and frozen in liquid nitrogen for PK analysis. The second animal in the cage was sacrificed by CO2 asphyxiation and the nasal cavity (including the olfactory epithelium), nasopharynx, paranasal sinus, trachea, lungs, brain, heart and larynx were collected and fixed in 4% formaldehyde and Histopathological evaluation (H&E staining) was performed. Inflammatory status was evaluated. Slide preparation was followed by histopathological examination of the collected organs during scheduled termination and necropsy from all the animals. Tissues were trimmed, embedded in paraffin, sectioned at approximately five micron thickness and stained with Hematoxylin & Eosin (H&E).

Sprague-Dawley rats = experiment: Topiramate safety and toxicity study (food consumption, body weight, histopathology); format: in vivo, rat
Experimental: A study was performed to evaluate the safety and toxicity, including adverse effects, of Topiramate following intranasal administration via a SipNose device to Sprague-Dawley (SD) rats. A dose 8 times the therapeutic dose was administered in order to determine the maximal tolerated dose. Doses used in this study were chosen to assess the safety of the approved drug given via the nose with an embodiment of a sipNose device.
Animals were observed individually at least once during the first 30 minutes after dosing, with special attention during the first four hours and prior to termination. Observations included changes in skin and fur, eyes and mucous membranes, and also respiratory, circulatory, autonomic and central nervous systems, and somatomotor activity and behavior pattern.
Body weight was monitored one day after the animals' arrival, prior to administration of the test material and before termination.
Animals were sacrificed via carbon dioxide asphyxiation and gross pathology was performed, examining the major tissue and organ systems.
Lungs were evaluated in both right and left lobes. All tissues were trimmed into block cassettes and sent to L.E.M for slide preparation and staining.

rats [2] = experiment: Repeated Topiramate dosing: body weight and food consumption; format: in vivo, rat
Text: The study investigated repeated intra-nasal delivery of Topiramate, using SipNose's novel device, in order to evaluate its effect on food consumption, body weight, and behavior and to measure the concentrations of the drug in the brain and plasma, in comparison to oral administration. Also, the safety of repeated dosing was examined.
The probability of appetite loss is a potential indicator for Topiramate. Food consumption was monitored during the experiment, and as the expectation was that food consumption will be reduced, care was taken in order to make sure it is not too dramatic or harmful to the animals.
A total of 38 rats were utilized. Thirty six (36) rats were divided into four groups of nine animals in each group. Two animals were used as the naïve, untreated group.
Topiramate was used in its original API form with no specific formulation. Topiramate was delivered to the nasal cavity either as a dry powder or as a solution of 10 mg/ml solubilized in Saline.
Application was by means of a SipNose device (FIG. 105) configured for use in the nasal cavities of rats. In order to alleviate the discomfort animal might endured during IN administration, Lidocaine was locally applied on the nasal area, prior to placement of the SipNose's device.
as §1
Body weight was recorded upon arrival, 2 days before study initiation and once a day thereafter.

rats [3] = experiment: Repeated Topiramate dosing: histopathological evaluation; format: in vivo, rat; conditions: all samples of all tissues examined, 6 days dosing
Experimental: as §1, §2
Animals were sacrificed 45 minutes after the first administration of Day 1 and the last administration of Day 6, following blood sampling of 400 μL, if required, as described below. Three (3) rats, sacrificed after the first dosing day, were perfused with saline for PK analysis of blood and brain. Animals sacrificed on the last day of the study (after one dose only) were divided into 2 groups: one animal in each cage was bled and perfused with saline, after which the brain was collected and frozen in liquid nitrogen for PK analysis. […] Inflammatory status was evaluated. […]

patients = conditions: commercial use; cited from earlier work
[4] = rat, in vivo
Experimental: as §3, §4, §5, §6, §7

rats [5] = conditions: cited from earlier work
[6] = SPECT-CT distribution of 99mTC-DTPA aerosol in nasal cavity and nasopharynx; format: in vivo; conditions: human volunteer, 300 microliters, air volume 20 ml
Experimental: The effects of air volume and air pressure on the distribution of 99mTC-DTPA aerosol in the nasal cavity and nasopharynx were examined using SPECT-CT for two human volunteers.
In both cases, the deposited material comprised 300 microliters of DTPA; 1.75 mc (milli Ciri) and the air volume was 20 ml. A pressure of 6 barg was used for the results shown in FIG. 31A, while a pressure of 4 barg was used for the results shown in FIG. 31B.

[7] = Brain absorption of insulin after SipNose nasal administration (quantitative ELISA); format: in vivo; conditions: rabbit; 10 U/Kg via SipNose nasal administration; 1 h, 2 h, 3 h post administration
Experimental: The substance in this experiment is Human Insulin (Lispro insulin, 5807 Da); the animal model is a rabbit. Administration was 10 U/Kg of Human Insulin via SipNose nasal administration. Brain concentrations were measured using insulin quantitative ELISA at 1 h, 2 h, and 3 h post administration.

[8] = Blood and brain absorption of insulin, SipNose nasal vs IV administration; format: in vivo, rabbit; conditions: rabbits, 0.5 U/kg
Experimental: In FIG. 76A-C, the efficacy of delivery of insulin to the brain is compared for the SipNose device vs. IV administration. The substance was Lispro insulin (5,807 Da) administered to rabbits. Four rabbits were used; all animals were given 0.5 U/kg of Human Insulin. Administration was via IV for rabbits 1 and 3 and via SipNose nasal administration for rabbits 2 and 4. Brain concentrations were measured using insulin quantitative ELISA.

[9] = rat, in vivo; remark: listed apart in the source
Experimental: For most liquid drug formulations, the drugs are dissolved in, suspended in or mixed with water-based liquids. However, many of the cannabis derivatives that show promise as therapeutic agents, such as the cannabinoids, need to be dissolved in oil. Therefore, a study was done to investigate uptake to the brain of an oil-based formulation. For this study, Fluorescein was dissolved in oil and administered intranasally, via the SipNose device, to rats. Fluorescein was administered to the control animals intravenously.

CC1(C)O[C@@H]2[C@@H](CO[C@@]3(COS(N)(=O)=O)OC(C)(C)O[C@@H]23)O1 [Topiramate]
half-life (in vivo): 0.75 h | half-life (in vivo; inhaled or intranasal): 4.32 h | AUC (in vivo; po, AUC (estimated)): 11800 ng·h/mL | concentration at 45 min ([1]; brain, other: IN (intranasal) via SipNose device, group 4M powder IN, read-out: Topiramate brain concentration following the 11th administration): 1030 ± 172 ng/mL | concentration at 45 min ([1]; plasma, other: IN (intranasal) via SipNose device, group 3M liquid IN, 45 minutes, read-out: Topiramate plasma concentration after the first administration): 1510 ± 505 ng/mL | concentration at 45 min ([1]; plasma, other: IN (intranasal) via SipNose device, group 4M powder IN, 45 minutes, read-out: Topiramate plasma concentration after the first administration): 4140 ± 597 ng/mL | concentration at 45 min ([1]; plasma, other: IN (intranasal) via SipNose device, group 4M powder IN, read-out: Topiramate plasma (blood) concentration following the 11th administration): 1980 ± 256 ng/mL | concentration at 45 min ([1]; plasma, po, group 2M liquid oral, 45 minutes, read-out: Topiramate plasma concentration after the first administration): 2070 ± 228 ng/mL | Food consumption on Day 2, relative to naïve rats (Sprague-Dawley rats; rats treated IN with Topiramate liquid): 98% | Food consumption on Day 2, relative to naïve rats (Sprague-Dawley rats; rats treated by Topiramate powder IN): around 60% | Food consumption on Day 2, relative to naïve rats (Sprague-Dawley rats; rats treated orally with Topiramate): 91% | body weight change from study initiation to termination (Sprague-Dawley rats; rats, all groups): relatively minor | drug-related pathological changes (histology) (Sprague-Dawley rats; rats, any animal, any investigated tissue, 6 mg twice, oral or IN): No drug-related pathological changes were detected | food consumption (rats [2]; Group 2M liquid Topiramate oral): increased food consumption | increase in body weight relative to all other treatment groups (rats [2]; Group 2M, end of treatment period (day 6)): 2 fold | increase in body weight during the treatment phase (rats [2]; Group 2M, liquid Topiramate oral, 0.78 mg twice a day, 6 days): approximately 17% | food consumption (rats [2]; Group 3M liquid Topiramate IN SipNose): reduced food consumption | food consumption (rats [2]; Group 4M dry powder Topiramate IN SipNose): reduced food consumption | increase in body weight during the treatment phase (rats [2]; the other treatment groups (IN via SipNose)): ~8% | histopathological findings after repeated dosing (rats [3]): No major histopathological findings were observed | patients with side effects such as somnolence, fatigue and dizziness (patients): over 10% | lower plasma value 10 minutes after second vs first administration ([4]; male, Sprague-Dawley, 10 min): 26% | plasma level 10 minutes after first administration, IN vs oral ([4]; male, Sprague-Dawley, 10 min): about twice the concentration found 10 minutes after oral administration | Half-life (estimated) ([4]; male, Sprague-Dawley, inhaled or intranasal, 6 mg): 5.07 h | higher plasma value 10 minutes after second vs first administration ([4]; male, Sprague-Dawley, po, 10 min): 84% | plasma levels 18 hours after the second administration [4]: dropped to pre-administration levels | time for which ED50 is stable after oral administration (rats [5]): 8 h

O=C([O-])CN(CCN(CC(=O)[O-])CC(=O)[O-])CCN(CC(=O)[O-])CC(=O)[O-].[99Tc+4] [99mTC-DTPA]
distribution of aerosol (SPECT-CT) ([6]; pressure 4 barg): localized in the nasal cavity at the respiratory and olfactory epitheliums and also moved down into the Nasopharynx (upper dotted arrow) and into the GI tract | distribution of aerosol (SPECT-CT) ([6]; pressure 6 barg): localized in the nasal cavity at the respiratory and olfactory epitheliums (dashed arrow) and did not reach the Nasopharynx and did not enter the GI tract

Lispro Insulin: Human Insulin (Lispro insulin, 5807 Da)
delivery of insulin to the brain (brain concentration, ELISA) [7]: delivered to the brain with the SipNose device and can be specifically detected | distribution of insulin in parts of the brain ([8]; SipNose direct-nose-to-brain): Insulin in both anterior and posterior parts of the brain | efficiency of delivery to the brain compared to I/V ([8]; SipNose nasal vs IV): highly efficient when compared to I/V administration

O=C1OC2(c3ccc(O)cc3Oc3cc(O)ccc32)c2ccccc21 [Fluorescein]
distribution within the brain [9]: distributed throughout the brain, rather than being concentrated in the cerebellum | early deposition in the spinal cord [9]: considerably less early deposition | uptake to the brain vs I/V [9]: considerably more uptake to the brain
